Experimental data reported in article PMC5306082, “Physiologically based kinetic modeling of the bioactivation of myristicin” (Archives of Toxicology, 2016).

Key:
[1] = Oxidation of 1′-hydroxymyristicin to 1′-oxomyristicin, human liver microsomes; assay type: in vitro ADME; conditions: human vs rat
Procedure: The kinetic constants for the enzymatic conversion of 1′-hydroxymyristicin to 1′-oxomyristicin were determined using incubation mixtures containing (final concentrations) 3 mM NAD^+, 2 mM GSH, and 1 mg/ml rat or human liver microsomes in 0.2 M Tris–HCl (pH 7.4). GSH was added to the incubation mixtures to trap the reactive 1′-oxo metabolite formed after oxidation of 1′-hydroxymyristicin. The level of GSH in the incubations was optimized in a previous study to obtain maximum scavenging of 1′-oxoestragole (Punt et al. [2009]). To this end, incubations were performed in the presence of increasing concentrations of GSH, ranging from 2 to 10 mM. […] Kinetic constants for this reaction in rat and human liver were derived by performing incubations with NAD^+ as a cofactor, given that in rat and human liver, NAD^+ is mainly present in an oxidized form with levels of NAD^+ being much higher than those of NADH. In a previous study, it was shown that the highest level of 1′-hydroxy alkenylbenzene oxidation occurs in incubations with microsomes in the presence of NAD^+ as cofactor. […] The enzyme responsible for the oxidation may be 17β-hydroxysteroid dehydrogenase type 2 (17β-HSD2) (Punt et al. [2010]). Prior to the addition of 1′-hydroxymyristicin at final concentrations ranging between 10 and 4000 μM to the incubation mixture from 100 times concentrated stock solutions in DMSO, samples were pre-incubated for 1 min at 37 °C. Reactions were terminated after 10 min of incubation at 37 °C by adding 25 μl (0.25 times the incubation volume) of ice-cold ACN. The formation of the GSH conjugate of 1′-oxomyristicin (GS-1′-oxomyristicin) was linear with time and microsomal protein concentration under the experimental conditions used. Blank incubations were performed without the cofactor NAD^+. Incubations were performed in triplicate. All samples were centrifuged for 5 min at 13,000×g, and the supernatant was stored at −20 °C until UPLC analysis.
Quantification of GS-1′-oxomyristicin was based on a calibration curve of the GSH adduct of the synthesized 1′-oxymyristicin made as previously described (van den Berg et al. [2012]; Punt et al. [2009]; Martati et al. [2011]; Al-Subeihi et al. [2011]). In short, a 60 μM concentration of the synthetic standard of 1′-oxomyristicin, dissolved in ACN, was incubated with different concentrations of GSH (i.e., 0–20 μM) in 0.2 M Tris–HCl (pH 7.4) for 6 h at 37 °C, resulting in full conversion of the GSH to GS-1′-oxymyristicin. Quantification was done by comparing the peak areas of the formed GS-1′-oxo metabolite in the incubation mixtures with peak areas of the GS-1′-oxymyristicin calibration curve thus obtained at a wavelength of 212 nm. The gradient for analysis of the metabolite consisted of a mixture of ACN and ultrapure water containing 0.1 % (v/v) TFA. The flow rate was 0.6 ml/min, The gradient started with 10 % ACN, increased to 30 % ACN over 2.5 min, after which ACN was increased to 80 % over 0.5 min, kept at 80 % for 0.5 min, followed by a decrease to 10 % over 0.5 min, and finally kept at 10 % for 0.5 min.

[2] = Sulfonation of 1′-hydroxymyristicin, human liver S9; assay type: in vitro ADME; conditions: S9 protein yield 143 mg/g liver
Procedure: The formation of 1′-sulfoxymyristicin was determined using incubations containing male rat liver Sprague–Dawley or pooled gender human liver S9 proteins, PAPS as a cofactor, and GSH, which acts as a scavenger of the reactive carbocation formed due to the unstable nature of the 1′-sulfoxy metabolite in an aqueous environment (van den Berg et al. [2012]; Martati et al. [2011]; Al-Subeihi et al. [2011]). Incubation mixtures containing (final concentrations) 10 mM of GSH, 0.2 mM of PAPS, and 3 mg/ml of S9 proteins in 0.1 M potassium phosphate (pH 8.2) were pre-incubated for 1 min at 37 °C. After the pre-incubation, 1′-hydroxymyristicin dissolved in DMSO was added in final concentrations ranging between 10 and 6000 μM while keeping the final content of DMSO at 1 % (v/v). The reaction was terminated after 360 min of incubation by adding 25 μl (0.25 times the incubation volume) of ice-cold ACN. The formation of the GSH conjugate of 1′-sulfoxymyristicin was linear with time and S9 protein concentrations under the experimental conditions used. Blank incubations were performed in the absence of PAPS. Incubations were performed in triplicate. All samples were centrifuged for 5 min at 16,000×g, and the supernatant was stored at −20 °C until ultra-performance liquid chromatography (UPLC) analysis.
Quantification of 1′-sulfoxymyristicin was done using UPLC analysis as described for the estimation of 1′-sulfoxysafrole (Martati et al. [2011]). […] The gradient for analysis of the metabolite consisted of a mixture of ACN and ultrapure water containing 0.1 % (v/v) TFA. The flow rate was 0.6 ml/min, starting at 0 % ACN and increasing the percentage of ACN to 20 % over 0.2 min, followed by an increase to 30 % ACN over 4.3 min, then increasing to 100 % over 0.3 min, and keeping it at 100 % for 0.2 min, and finally decreasing to 0 % over 0.2 min and keeping it at 0 % for 0.8 min. Separation and purification of the GSH adduct of 1′-sulfoxymyristicin was performed by collecting the peak of the metabolite from the UPLC column. […]

C=CC(O)c1cc(OC)c2c(c1)OCO2 (centres unmarked) [1′-Hydroxymyristicin, 1′-hydroxymyristicin]
oxidation, times more efficient in human liver than in male rat liver [1]: 1.2 times
k Scaled [2]: 0.14 ml/hr/g tissue
